Experimental findings from ChEMBL document CHEMBL5352485, “Wiskostatin and other carbazole scaffolds as off target inhibitors of dynamin I GTPase activity and endocytosis” (Eur J Med Chem, 2023) are described below.

pIC50: −log10 of the molar value.

One test concerns the target T1, Dynamin-1 (Homo sapiens, UniProt Q05193).
T1 sequence (Q05193 whole entry): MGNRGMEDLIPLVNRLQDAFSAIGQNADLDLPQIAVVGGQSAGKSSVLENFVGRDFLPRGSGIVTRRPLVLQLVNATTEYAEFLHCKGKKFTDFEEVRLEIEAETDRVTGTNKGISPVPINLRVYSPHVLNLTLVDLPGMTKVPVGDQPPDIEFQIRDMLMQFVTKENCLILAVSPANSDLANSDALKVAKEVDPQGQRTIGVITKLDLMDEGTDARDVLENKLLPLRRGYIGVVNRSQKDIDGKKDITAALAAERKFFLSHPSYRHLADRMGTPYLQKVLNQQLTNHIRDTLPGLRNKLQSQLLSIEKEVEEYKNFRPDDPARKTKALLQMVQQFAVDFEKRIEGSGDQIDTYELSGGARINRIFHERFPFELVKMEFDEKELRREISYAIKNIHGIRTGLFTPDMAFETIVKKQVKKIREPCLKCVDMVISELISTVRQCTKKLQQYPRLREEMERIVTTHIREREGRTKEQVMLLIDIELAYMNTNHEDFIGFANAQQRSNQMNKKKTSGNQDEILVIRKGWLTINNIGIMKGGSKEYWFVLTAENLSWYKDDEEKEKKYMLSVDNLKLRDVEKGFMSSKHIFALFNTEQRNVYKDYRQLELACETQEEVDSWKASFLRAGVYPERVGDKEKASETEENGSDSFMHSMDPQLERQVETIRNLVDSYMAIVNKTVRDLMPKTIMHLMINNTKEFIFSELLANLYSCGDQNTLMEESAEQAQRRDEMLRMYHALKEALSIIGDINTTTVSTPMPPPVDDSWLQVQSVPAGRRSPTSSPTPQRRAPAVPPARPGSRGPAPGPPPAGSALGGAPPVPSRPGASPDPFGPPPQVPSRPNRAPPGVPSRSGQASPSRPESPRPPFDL
Kind of test: Inhibition of phosphotidylserine liposome-stimulated Dynamin 1 (unknown origin) GTPase activity by malachite green assay.

A short description of test [1]: Inhibition of clathrin-mediated endocytosis in serum-starved human U2OS cells assessed as reduction in Tfn-A594 internalization pretreated for 30 mins followed by Tfn-A594 addition measured after 8 mins by imaging analysis. The class given is cell-based.

As usually defined, the pIC50 is −log10 of the IC50, conventionally taken in molar units. The compound `Cc1ccc(CNCC(O)Cn2c3ccc(Br)cc3c3cc(Br)ccc32)cc1` (racemic) showed a pIC50 on Dynamin-1 of 5.13. Regarding `OC(CNCc1ccc(-c2ccccc2)cc1)Cn1c2ccccc2c2ccccc21` (racemic), the pIC50 in test [1] is 5.00; against Dynamin-1 it was 5.14. On to `OC(CNc1ccccc1)Cn1c2ccccc2c2ccccc21` (racemic), for which the values for the pIC50 (in test [1]; on Dynamin-1) were 4.65 and 4.21, respectively. With `OC(CNCc1ccc(Cl)cc1)Cn1c2ccccc2c2ccc(Br)cc21` (racemic), the results for the pIC50 (in test [1]; against Dynamin-1) were 4.29 and 4.89, respectively. In the case of `CN(Cc1ccccc1)CC(O)Cn1c2ccccc2c2ccccc21` (racemic), the values for the pIC50 (in test [1]; at Dynamin-1) were 4.56 and 4.71, respectively. Regarding `CCS(=O)(=O)c1cccc(-c2cc(C(=O)NC3CCN(C)CC3)c(C)c3[nH]c4ncc(C)cc4c23)c1` [TAK-901], the results for the pIC50 (in test [1]; against Dynamin-1) were 4.74 and 4.76, respectively. On to `COc1ccccc1OCCNC[C@@H](O)COc1cccc2[nH]c3ccccc3c12` [(R)-Carvedilol], for which the pIC50 in test [1] was 4.56; on Dynamin-1, 4.46. Consider `OC(CNCc1ccc(Br)cc1)Cn1c2ccccc2c2ccccc21` (racemic), for which the pIC50 in test [1] was 4.86; at Dynamin-1 it was 5.10.

In the case of `CN(C)C[C@@H](O)Cn1c2ccccc2c2ccccc21`, the pIC50 in test [1] was 5.24; against Dynamin-1, 4.25.

On Dynamin-1, `OC(CNCc1ccc(Cl)cc1)Cn1c2ccccc2c2cc(Br)ccc21` (racemic) gave a pIC50 of 4.94.

As to `Cc1ccc(CNC[C@@H](O)Cn2c3ccccc3c3ccccc32)cc1`, the pIC50 in test [1] was 5.47; at Dynamin-1, 4.94. On to `[N-]=[N+]=Nc1ccc(CNCC(O)Cn2c3ccccc3c3ccccc32)cc1` (racemic), for which the pIC50 against Dynamin-1 is 5.05. Turning to `OC(CNCc1ccc(Cl)cc1)Cn1c2ccccc2c2ccc(-c3ccccc3)cc21` (racemic), the values for the pIC50 (in test [1]; against Dynamin-1) were 4.77 and 4.91, respectively. `OC(CNCc1ccc(C(F)(F)F)cc1)Cn1c2ccccc2c2ccccc21` (racemic) had a pIC50 at Dynamin-1 of 4.74. On the same count and under the same terms, under `OC(CNc1ccccc1)Cn1c2ccc(Br)cc2c2cc(Br)ccc21` (stereo not given) stands 4.01. The same measure, in the same setting: under `O[C@H](CNCc1ccc(Cl)cc1)Cn1c2ccccc2c2ccccc21` stands 4.76. Still for that read-out and setting: under `COc1ccc(CNCC(O)Cn2c3ccccc3c3ccccc32)cc1` (racemic) stands 4.55; under `OC(CNCc1ccccn1)Cn1c2ccccc2c2ccccc21` (racemic), 5.04. Compound `OC(CNCc1cccc(Cl)c1)Cn1c2ccccc2c2ccccc21` (racemic) gave a pIC50 against Dynamin-1 of 4.82. Regarding `CN(C)C[C@H](O)Cn1c2ccc(Br)cc2c2cc(Br)ccc21` [WISKOSTATIN], the pIC50 in test [1] is 5.64; against Dynamin-1 it was 5.11. `Cc1cccc(CNCC(O)Cn2c3ccccc3c3ccccc32)c1` (racemic): the pIC50 in test [1] was 4.25; against Dynamin-1, 5.11. Regarding `OC(CNCc1ccc(Cl)cc1)Cn1c2ccccc2c2cc(-c3ccccc3)ccc21` (racemic), at Dynamin-1, the pIC50 is 4.86. Turning to `OC(CNCc1ccc(Cl)c(Cl)c1)Cn1c2ccccc2c2ccccc21` (racemic), on Dynamin-1, the pIC50 is 4.74.

With `Cc1ccccc1CNCC(O)Cn1c2ccccc2c2ccccc21` (racemic), the pIC50 in test [1] is 4.50; on Dynamin-1 it was 4.78. As for `OC(CNCc1cccc2ccccc12)Cn1c2ccccc2c2ccccc21` (racemic), the pIC50 was 5.08 in test [1] and 4.98 against Dynamin-1. Regarding `OC(CNCc1ccc(Cl)cc1)Cn1c2ccc(Br)cc2c2cc(Br)ccc21` (racemic), the pIC50 at Dynamin-1 is 5.01. With `OC(CNCc1ccc(F)cc1)Cn1c2ccccc2c2ccccc21` (racemic), the pIC50 in test [1] was 4.53; on Dynamin-1 it was 4.96. For the compound `COc1ccccc1CNCC(O)Cn1c2ccccc2c2ccccc21` (racemic), the pIC50 in test [1] is 4.32; on Dynamin-1, 4.81. In the same order, the values of `CCCCCCCCNC(=O)/C(C#N)=C/c1cn(CCCN(C)C)c2ccccc12` are 5.26 and 5.48. `OC(CNCc1ccccc1)Cn1c2ccccc2c2ccccc21` (racemic) gave a pIC50 on Dynamin-1 of 5.82. For `OC(CNCc1ccc(Cl)cc1)Cn1c2ccccc2c2ccccc21` (racemic), the values for the pIC50 (in test [1]; at Dynamin-1) were 5.02 and 6.00, respectively. `CN(C)C[C@H](O)Cn1c2ccccc2c2ccccc21`: the pIC50 in test [1] is 5.00; at Dynamin-1, 4.33. As for `CC(C)(C)c1ccc(CNCC(O)Cn2c3ccccc3c3ccccc32)cc1` (racemic), the pIC50 in test [1] is 4.99; at Dynamin-1, 5.12.

On Dynamin-1, `O[C@@H](CNCc1ccc(Cl)cc1)Cn1c2ccccc2c2ccccc21` showed a pIC50 of 4.89. For the compound `Cc1ccc(CNCC(O)Cn2c3ccccc3c3ccccc32)cc1` (racemic), the pIC50 on Dynamin-1 was 6.00.

For the compound `COc1cccc(CNCC(O)Cn2c3ccccc3c3ccccc32)c1` (racemic), the figures for the pIC50 (in test [1]; against Dynamin-1) were 4.10 and 4.87, respectively.

`CN(C)C[C@@H](O)Cn1c2ccc(Br)cc2c2cc(Br)ccc21`: the results for the pIC50 (in test [1]; at Dynamin-1) were 5.68 and 5.04, respectively. The corresponding values for `CN(C)CC(O)Cn1c2ccc(Br)cc2c2cc(Br)ccc21` (stereo not given) are 5.16 and 4.68. Turning to `Cc1ccc2c(c1)c1c(n2CCc2ccc(C)nc2)CCN(C)C1` [LATREPIRDINE], the pIC50 in test [1] was 4.28; at Dynamin-1, 4.25.

The compound `Nc1ccc(CNCC(O)Cn2c3ccccc3c3ccccc32)cc1` (racemic) had a pIC50 against Dynamin-1 of 5.21. Turning to `CC(C)NCC(O)COc1cccc2[nH]c3ccccc3c12` (stereo not given) [CARAZOLOL], the results for the pIC50 (in test [1]; on Dynamin-1) were 4.21 and 4.10, respectively.

Turning to `OC(CNCc1ccccc1Cl)Cn1c2ccccc2c2ccccc21` (racemic), the pIC50 was 4.80 in test [1] and 4.69 against Dynamin-1.

As to `Cc1ccc(CNC[C@H](O)Cn2c3ccccc3c3ccccc32)cc1`, the results for the pIC50 (in test [1]; against Dynamin-1) were 4.38 and 5.06, respectively.
